From patent publication US20250275964A1, “METHODS OF INHIBITING LIVER-TYPE GLUTAMINASE, GLS2” (CORNELL UNIVERSITY, priority 2019, published 2025)

Tests used:
TSE cells = assay: 6-day cell proliferation assay, TSE; type: cell-based, human; settings: Homo sapiens, 144 h; TSE, proliferation over 6 days
Protocol: (§1) Human breast cancer cell lines MCF7, BT-474, T-47D, MDA-MB-453, MDA-MB-231, Hs 578T, HCC38, SK-BR-3, and DU4475 were purchased from the American Type Culture Collection (ATCC) and no additional cell authentication was performed. The TSE human breast cancer cell line was supplied by Dr. Steven Abcouwer (University of Michigan). All breast cancer cells were cultured at 37° C. under a 5% CO2 atmosphere in RPMI 1640 medium containing 2 mM glutamine (Gibco) and supplemented with 10% fetal bovine serum (FBS) (Gibco). The 293T cell line (ATCC) used for generating lentivirus particles was cultured as above but using DMEM, high glucose (Gibco).
(§2) Culture medium was added to 12-well plates (1 ml/well) and wells were seeded with cells at Day 0 as follows. MCF7, T-47D, BT-474, HCC38 cells: […] cells/well. MDA-MB-453 and MDA-MB-231 cells: 1×10^4 cells/well. TSE and Hs 578T cells: 0.3×10^4 cells/well. After 16 hours, culture medium was replaced with fresh medium supplemented with appropriate concentrations of inhibitors and was subsequently replaced every 48 hours. On Day 6 cells were trypsinized and suspended in an appropriate volume of culture medium, and the total number of cells per well was determined using a hemocytometer or a TC20 Automated Cell Counter (Bio-Rad).

BT-474 cells = assay: 6-day cell proliferation assay, BT-474; type: cell-based, human; settings: Homo sapiens, 144 h; BT-474, proliferation over 6 days
Protocol: as §1, §2

MDA-MB-453 cells = assay: 6-day cell proliferation assay, MDA-MB-453; type: cell-based, human; settings: Homo sapiens, 144 h; MDA-MB-453, proliferation over 6 days
Protocol: as §1, §2

T-47D cells = assay: 6-day cell proliferation assay, T-47D; type: cell-based, human; settings: Homo sapiens, T47D, 144 h, proliferation over 6 days
Protocol: as §1, §2

[1] = target: T1, recombinant full-length human GLS2 (Homo sapiens, UniProt Q9UI32); assay: Real-time recombinant glutaminase activity assay, GLS2; type: biochemical; settings: different concentrations
T1 construct: GLS2 (residues 38 to 602) in E. coli; inferred from pQE80 vector and Ni-NTA/imidazole purification; made in house; host or cells: E. coli BL21(DE3)
T1 sequence (Q9UI32 38-602): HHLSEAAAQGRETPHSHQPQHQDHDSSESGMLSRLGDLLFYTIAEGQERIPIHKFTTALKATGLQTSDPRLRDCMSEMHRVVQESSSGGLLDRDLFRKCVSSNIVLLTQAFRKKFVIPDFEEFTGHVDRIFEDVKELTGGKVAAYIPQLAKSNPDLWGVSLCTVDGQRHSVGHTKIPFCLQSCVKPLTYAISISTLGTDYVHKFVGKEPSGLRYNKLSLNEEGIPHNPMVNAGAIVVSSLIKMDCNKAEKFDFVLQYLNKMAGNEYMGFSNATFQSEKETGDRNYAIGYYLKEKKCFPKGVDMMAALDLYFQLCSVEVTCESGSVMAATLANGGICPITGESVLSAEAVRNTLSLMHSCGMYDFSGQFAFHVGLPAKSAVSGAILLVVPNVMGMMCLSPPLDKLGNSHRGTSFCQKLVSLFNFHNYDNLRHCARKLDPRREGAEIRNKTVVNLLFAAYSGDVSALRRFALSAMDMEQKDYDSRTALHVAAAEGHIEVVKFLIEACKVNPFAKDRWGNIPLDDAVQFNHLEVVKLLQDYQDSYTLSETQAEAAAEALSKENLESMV
Protocol: Real-time monitoring of glutaminase activity through NADH production was performed on a Cary Eclipse fluorescence spectrometer. The excitation and emission wavelengths were set at 340 nm and 460 nm, respectively. To a 1 ml cuvette, 900 μl of assay buffer was added, followed by 10 μl of GDH, 40 μl of 50 mM NAD and 20 μl of either DMSO or various dilutions of 968. Then, 100 μl of either 100 nM GAC or 500 nM GLS2 was added to this mixture and the fluorescence emission was monitored in real time. After 30 s, 200 μl of a mixture of glutamine and K2HPO4 was added such that the final concentrations of K2HPO4 and glutamine were 100 mM and 20 mM, respectively. The initial velocity of glutamine hydrolysis was obtained from the slopes of the linear portion of the kinetic curve.
Recombinant GAC and GLS2 were expressed in E. coli as described in Huang et al., “Characterization of the Interactions of Potent Allosteric Inhibitors with Glutaminase C, a Key Enzyme in Cancer Cell Glutamine Metabolism,” J. Biol. Chem. 293:3535-3545 (2018), which is hereby incorporated by reference in its entirety. Briefly, E. coli strain BL21(DE3) (Thermo Fisher Scientific) were transformed with vector pQE80-GAC-72-598 or with pQE80-GLS2-38-602 to express the processed forms of GAC and GLS2, respectively. For both constructs, expression was induced with 0.3 mM IPTG for 20 hours at 18° C., and cells were then harvested by centrifugation and lysed by sonication in binding buffer (500 mM NaCl, 50 mM Tris-HCl pH 8.5, 10 mM imidazole, 5 mM β-mercaptoethanol, 1 mM benzamidine chloride). The lysate was centrifuged, and the supernatant applied to a Ni-NTA column which was then washed with 100 column volumes of binding buffer followed by 10 volumes of wash buffer (500 mM NaCl, 50 mM Tris-HCl pH 8.5, 40 mM imidazole, 5 mM β-mercaptoethanol, 1 mM benzamidine chloride). Protein was eluted with 5 column volumes of elution buffer (500 mM NaCl, 300 mM imidazole-HCl pH 7.5, 5 mM β-mercaptoethanol, 1 mM benzamidine chloride). The eluate was centrifugally concentrated and then further purified by FPLC using a HiLoad 16/600 Superdex 200 column (GE Healthcare) with 150 mM NaCl, 5 mM Tris-HCl pH 7.5.

HCC38 cells = assay: 6-day cell proliferation assay, HCC38; type: cell-based, human; settings: Homo sapiens, 144 h; HCC38, proliferation over 6 days
Protocol: as §1, §2

MDA-MB-231 cells = assay: 6-day cell proliferation assay, MDA-MB-231; type: cell-based, human; settings: Homo sapiens, 144 h; MDA-MB-231, proliferation over 6 days
Protocol: as §1, §2

MCF7 cells = assay: 6-day cell proliferation assay, MCF7; type: cell-based, human; settings: Homo sapiens, 144 h; MCF7, proliferation over 6 days
Protocol: as §1, §2

Hs 578T cells = assay: 6-day cell proliferation assay, Hs 578T; type: cell-based, human; settings: Homo sapiens, 144 h, proliferation over 6 days
Protocol: as §1, §2

[2] = system: GLS2 protein levels in TSE cells; assay: Western blot of GLS2 in TSE cells treated with hypomethylating agent; type: cell-based, human; settings: 48 hours
Protocol: Cells, or fractionated mitochondria and nuclei, were lysed with ice-cold lysis buffer (50 mM HEPES pH 8.0, 150 mM NaCl, 25 mM NaF, 1% (v/v) Triton X-100, 1 mM MgCl2, 50 mM β-glycerophosphate, 30 μg/ml leupeptin, 5 μg/ml aprotinin), and insoluble debris cleared by centrifugation at 4° C. Protein concentrations were determined by Bradford assay (Bio-Rad), and lysate was then boiled for 10 min in reducing SDS-sample buffer. Lysate proteins (20 μg total protein/lane, except for the cell fractionation experiment in which 5 μg total protein/lane was used) were then resolved on Novex 12% Tris-Glycine Mini Gels (Thermo Fisher Scientific) and transferred to PVDF membrane (PerkinElmer). Membranes were blocked in 7% BSA in Tris-Buffered Saline plus 0.05% TWEEN 20 (TBST) for 1 hour at room temperature and probed overnight at 4° C. in primary antibody solution in TBST (see Table 3 for antibody dilutions). They were then washed with TBST and incubated in TBST containing 25% (v/v) non-fat dry milk powder and anti-Rabbit or anti-Mouse secondary antibody (1:2500) for 1 hour. Finally, membranes were washed in TBST, and imaged using Western Lightning Plus-ECL (PerkinElmer) and HyBlot ES autoradiography film (Denville Scientific Inc.).

breast cancer cell lines = settings: previously reported (Huang et al. 2018); cited from earlier work

O=C(Cc1cccc(OC(F)(F)F)c1)Nc1ccc(CCCCc2nnc(NC(=O)Cc3ccccn3)s2)nn1 [CB-839]
EC50 (TSE cells): 0.041 µM
EC50 (BT-474 cells): > 1 µM
EC50 (MDA-MB-453 cells): > 1 µM
EC50 (T-47D cells): > 1 µM
inhibition of recombinant GLS2 activity [1]: resistance
EC50 (HCC38 cells): 0.049 µM
EC50 (MDA-MB-231 cells): 0.019 µM
EC50 (MCF7 cells): > 1 µM
EC50 (Hs 578T cells): 0.031 µM

Nc1ncn([C@@H]2O[C@H](CO)[C@@H](O)[C@H]2O)c(=O)n1 [azacitidine]
GLS2 protein levels [2]: increased

O=C(Cc1ccccc1)Nc1nnc(NC2CCN(c3nnc(NC(=O)Cc4ccccc4)s3)CC2)s1 [UPGL00004]
selectivity profile, basal- versus luminal-subtype cells (breast cancer cell lines): same selectivity profile
